In patent US8227515B2, “Use of hydroxamic acid derivatives for the preparation of anti-tumour medicaments” (Italfarmaco S.p.A., priority 2003, dated 2012):
Where a name gives a salt, the structure may show the parent alone.

Legend:
[1] = system: A549 (pulmonary carcinoma); experiment: Tritiated thymidine incorporation, tumour cell growth inhibition; format: cell-based; details: Homo sapiens, 48 hours with compound, read-out: IC50 (50% cell growth inhibition)
Procedure: (§1) The anti-tumour effect of the compound of example 12 of EP 901465, 4-[6-(diethylaminomethyl)naphth-2-ylmethyloxycarbamoyl)] benzohydroxamic acid hydrochloride (ITF 2357), was tested in vitro by measuring the capacity of the compound to inhibit the growth of tumour cell lines of different histotype deriving from both solid tumours and haematological tumours. The cell lines used were: A549 (pulmonary carcinoma), MDA-MB435 (breast carcinoma) and KG-1 (myeloid leukaemia).
(§2) A549 and MDA-MB435 cells (respectively grown in E-MEM and D-MEM culture medium, supplemented with 10% of fetal calf serum) were seeded on 96 wells-flat bottom-plates (5000 cells/well) and allowed to adhere for 4 hours at 37° C. under 5% CO2 atmosphere. Thereafter ITF 2357 at various doses was added to each well (4 replicates). […]
(§3) […] At the end the cells were collected by a cell harvester and the radioactivity contained in each sample which is directly proportionated to DNA synthesis and therefore to cell proliferation was measured by a liquid scintillation beta counter.
(§4) The effect of different doses of ITF 2357 was measured as percent of inhibition of radioactivity incorporation compared with untreated control cells. […]

[2] = system: MDA-MB435 (breast carcinoma); experiment: as above; format: cell-based; details: Homo sapiens, MDA-MB-435, 48 hours with compound, read-out: IC50 (50% cell growth inhibition)
Procedure: as §1, §2, §3, §4

KG-1 (myeloid leukaemia) = experiment: as above; format: cell-based; details: 48 hours with compound, read-out: IC50 (50% cell growth inhibition)
Procedure: as §1
A liquid scintillation beta counter was used for measurement of the radioactivity contained in each sample, which is directly proportional to DNA synthesis and therefore to cell proliferation. KG-1 cells, grown in RPMI 1640 culture medium, supplemented with 5% fetal calf serum, were seeded in 96 wells-flat bottom-plates (250000 cells/well). ITF 2357 at various doses was immediately added and after 36 hours tritiated thymidine was added to each well (1 μCi/well) and left therein for the following 12 hours. At the end the cells were collected by a cell harvester and the radioactivity contained in each sample which is directly proportionated to DNA synthesis and therefore to cell proliferation was measured by a liquid scintillation beta counter.
as §4

Anad (Melanoma) = experiment: Sulforhodamine B viable cell assay, 72 hours; format: cell-based; details: Homo sapiens
Procedure: (§5) Cell lines derived from human solid tumours of different histotype and stabilised in vitro were used in the following experiment. In particular, three cell lines from head and neck tumours (KB, Ca127 and Hep2), two cell lines derived from colon carcinomas (HT-29 and LoVo) and four cell lines derived from melanomas (Colo38, Pes41, Pes43 and Anad) were studied.
(§6) The cells were grown according to conventional methods in flasks containing synthetic culture medium added with fetal serum, at 37° C. under 5% CO2 atmosphere, then seeded in 96 wells plates and allowed to adhere for some hours. ITF 2357 was added in triplicate at increasing doses to each well and the cells were incubated for further 72 hours. Viable cells were labelled by dyeing with sulforhodamine B and their amount was determined by spectrophotometric evaluation of the dye content in each well. The effect of ITF 2357 was calculated as percentage of inhibition, at each concentration, of the dye incorporation in wells containing ITF 2357 compared with control wells (cells without drug). IC50 values of ITF 2357 were calculated by Software Calcusyn (Biosoft) according to dose-response curves.

Cal27 (Head-neck) = experiment: Sulforhodamine B viable cell assay, 72 hours; format: cell-based; details: Homo sapiens, CAL-27
Procedure: as §5, §6

Colo38 (Melanoma) = experiment: Sulforhodamine B viable cell assay, 72 hours; format: cell-based; details: Homo sapiens
Procedure: as §5, §6

HT-29 (Colon carcinoma) = experiment: Sulforhodamine B viable cell assay, 72 hours; format: cell-based; details: Homo sapiens
Procedure: as §5, §6

Hep-2 (Head-neck) = experiment: Sulforhodamine B viable cell assay, 72 hours; format: cell-based; details: Homo sapiens
Procedure: as §5, §6

KB (Head-neck) = experiment: Sulforhodamine B viable cell assay, 72 hours; format: cell-based; details: Homo sapiens
Procedure: as §5, §6

LoVo (Colon carcinoma) = experiment: Sulforhodamine B viable cell assay, 72 hours; format: cell-based; details: Homo sapiens
Procedure: as §5, §6

Pes41 (Melanoma) = experiment: Sulforhodamine B viable cell assay, 72 hours; format: cell-based; details: Homo sapiens
Procedure: as §5, §6

Pes43 (Melanoma) = experiment: Sulforhodamine B viable cell assay, 72 hours; format: cell-based; details: Homo sapiens
Procedure: as §5, §6

murine melanoma B16-BL6 = experiment: Growth of subcutaneous murine melanoma B16-BL6 in vivo; design: species or system mouse C57BL/6; details: female C57BL/6 mice, oral, daily 6 days a week
From the text: The anti-tumour effect of ITF 2357 was studied measuring the capacity of the compound to reduce the growth of the murine melanoma B16-BL6. B16-BL6 tumour is a highly metastatic variant (Sciumbata T. et al. Invasion and Metastasis 1996; 16: 132-143) of the native tumour B16 and it grows subcutaneously in the syngenic mouse C57BL/6 (Gutman M et al. Cancer Biother. 1994; 9(2): 163-170). B16-BL6 tumour cells were inoculated subcutaneously in female C57BL/6 mice (10 animals/group, weight 20-22 grams) at the dose of 2×10^5 cells/mouse. ITF 2357 dissolved in water was administered orally, at the indicated doses, 10 minutes before the inoculum of the tumour cells and then daily for 6 days a week. The tumour growth was expressed as tumour weight, measuring twice a week, by means of a calibre, the two perpendicular diameters of the nodules. The weight was calculated according to the formula: (diameter 1×diameter 2)^2/2 as described in Giavazzi R. et al. Cancer Res. 1986; 46: 1928-1933.

IC50 [1]: 0.495 µM | IC50 [2]: 0.073 µM | IC50 (KG-1 (myeloid leukaemia)): 0.552 µM | IC50 (Anad (Melanoma)): 5.7 µM | IC50 (Colo38 (Melanoma)): 2.38 µM | IC50 (HT-29 (Colon carcinoma)): 0.7 µM | IC50 (KB (Head-neck)): 0.64 µM | IC50 (LoVo (Colon carcinoma)): 2.5 µM | IC50 (Pes41 (Melanoma)): 1.6 µM | IC50 (Pes43 (Melanoma)): 1.4 µM
SMILES: CCN(CC)Cc1ccc2cc(COC(=O)Nc3ccc(C(=O)NO)cc3)ccc2c1 [ITF 2357, 4-[6-(diethylaminomethyl)naphth-2-ylmethyloxycarbamoyl)] benzohydroxamic acid hydrochloride]
IC50 (Cal27 (Head-neck)): 3.4 µM | IC50 (Hep-2 (Head-neck)): 1 µM | effect on the tumour growth (murine melanoma B16-BL6): dose-dependent inhibitory effect | reduction of the volume of the tumoural nodule (murine melanoma B16-BL6; after 15 days of treatment): about 50%
